Reference: EP0510473A1, “Thienyl-nonatetraenoic acid derivatives with anti-rheumatic activity” (F. HOFFMANN-LA ROCHE AG, priority 1991, dated 1992)
Marks after values point to notes of the source that are not given here.

Key:
[1] = tested on: adjuvant arthritis; test: Developing adjuvant arthritis model (chronic adjuvant arthritis test); type: in vivo, male Charles River Lewis rats; details: for % Change in Paw Volume (day 23) left / % Change in Paw Volume (day 23) right / % Change in plasma fibrinogen: vs vehicle-treated arthritic animals; for Body Weight gain(g): body weight on day 23 minus day 0
Method: That the compounds of this invention are effective anti-arthritic agents can be seen from the results obtained when these compounds are administered to rats in accordance with the chronic adjuvant arthritis test system disclosed in Billingham and Davies "Handbook of Experimental Pharmacology" (editors J.R. Vane and S.H. Ferreira) Vol. 50/II, pg. 108-144, Springer-Verlag, Berlin, 1979). In this procedure, adjuvant arthritis was induced by the injection on day 0 to 0.10 ml of adjuvant (a suspension of heat-killed, dessicated Mycobacterium butyricum, 0.5% (w/v), in heavy mineral oil containing 0.2% digitonin) subplantarly into the right hind paw ("developing" model) or the base of the tail ("established" model) of male Charles River Lewis rats (120-140 g) that were housed individually and given food and water ad lib. Paw volumes (both hind paws) were measured immediately after injection of the adjuvant. Paw volumes were also measured at selected time intervals to follow the development of inflammation-induced swelling in the arthritic paws by immersion of the paw to the level of the lateral malleolus in a mercury plethysmograph. In the developing adjuvant arthritis model [Table 1], drugs were administered once a day (starting on the day of adjuvant injection and continuing for 23 days) by intubation using Tween 80 (polyoxyethylene sorbitan mono-oleate) at a dose of 0.25 ml/100 g body weight as the vehicle. Arthritic control rats received daily doses of the vehicle only. On day 23, i.e., approximately 24 hours after the last dose of drug, the rats were sacrificed, plasma was collected and plasma fibrinogen levels were determined (ammonium sulfate turbidimetric method) as described by Exner et al., Amer. J. Clin. Path., 71:521-527 (1979). Anti-inflammatory activity of the test drugs were determined by comparing the extent of paw swelling (paw volume on day 23 minus the paw volume on day 0) in drug-treated arthritic rats with the extent of paw swelling in the vehicle-treated arthritic rats. Drug induced decreases in the level of plasma fibrinogen, an acute phase protein that is elevated in the plasma of rats with adjuvant-induced arthritis, were also used to quantitiate the anti-inflammatory activity.

[2] = Serum triglycerides and cholesterol in normal animals treated for 14 days; type: in vivo, rats; details: for Cholesterol (% change): serum, normal rats, vs vehicle-treated normal rats
Method: Normal animals were also treated with the test retinoids for 14 days and serum samples were collected for the determination of serum triglycerides and cholesterol. Triglyceride and cholesterol levels in the drug-treated animals were compared with triglyceride and cholesterol levels in vehicle-treated animals.

[3] = tested on: adjuvant arthritis; test: Established adjuvant arthritis model (chronic adjuvant arthritis test); type: in vivo, male Charles River Lewis rats; details: for Change in Paw Volume (ml) / Change in body weight(g): difference from day 21 to day 28; for % Change in plasma fibrinogen: relative to vehicle-treated arthritic animals
Method: That the compounds of this invention are effective anti-arthritic agents can be seen from the results obtained when these compounds are administered to rats in accordance with the chronic adjuvant arthritis test system disclosed in Billingham and Davies "Handbook of Experimental Pharmacology" (editors J.R. Vane and S.H. Ferreira) Vol. 50/II, pg. 108-144, Springer-Verlag, Berlin, 1979). In this procedure, adjuvant arthritis was induced by the injection on day 0 to 0.10 ml of adjuvant (a suspension of heat-killed, dessicated Mycobacterium butyricum, 0.5% (w/v), in heavy mineral oil containing 0.2% digitonin) subplantarly into the right hind paw ("developing" model) or the base of the tail ("established" model) of male Charles River Lewis rats (120-140 g) that were housed individually and given food and water ad lib. Paw volumes (both hind paws) were measured immediately after injection of the adjuvant. Paw volumes were also measured at selected time intervals to follow the development of inflammation-induced swelling in the arthritic paws by immersion of the paw to the level of the lateral malleolus in a mercury plethysmograph. In the established adjuvant arthritis model [Table 2], the arthritis was allowed to develop untreated for 21 days and then the arthritic animals were divided into experimental groups with approximately equal mean hind paw volumes. Starting on day 21, the arthritic animals were treated by intubation once a day with drugs for 7 days (Tween 80 as vehicle). Arthritic control animals received daily doses of the vehicle only. On day 28, the animals were sacrificed, plasma was collected and plasma fibrinogen levels were determined as described above. Antiinflammatory activity was determined by comparing the change in paw swelling in drug-treated arthritic animals (combined hind paw volume on day 28 minus combined hind paw volume on day 21) with the change in paw swelling in vehicle-treated arthritic animals. Drug-induced changes in plasma fibrinogen were also used to assess the antiinflammatory effects of the test drugs.

[4] = tested on: adjuvant arthritis; test: as above; type: in vivo, male Charles River Lewis rats; details: 7 days; for Change in Paw Volume (ml) / Change in body weight(g): difference from day 21 to day 28; for % Change in plasma fibrinogen: relative to vehicle-treated arthritic animals
[5] = 75 μ Moles/Kg Po. Tween 80, daily for 23 days
[6] = 75 µMoles/Kg p.o. tween 80, 7 days
[7] = 25 μ Moles/Kg Po. Tween 80, daily for 23 days

CC1=C(/C=C/C(C)=C/C=C/C(C)=C/C(=O)Nc2ccc(O)cc2)C(C)(C)CCC1 [the 1st table, row 6, 4-hydroxyphenyl retinamide, reference compound]
% Change in Paw Volume (day 23) left [1, 5]: -51* %
% Change in Paw Volume (day 23) right [1, 5]: -49* %
% Change in plasma fibrinogen [1, 5]: -42* %
Body Weight gain(g) ([1]; 75 μ Moles/Kg Po. Tween 80): 39(37) g
Cholesterol (% change) ([2]; 75 μ Moles/Kg Po. Tween 80): +66* %

CCCCCCCCCOc1cc(C)sc1/C=C/C(C)=C/C=C/C(C)=C/C(=O)O
Change in Paw Volume (ml) [3, 6]: 0.06* (1.03) ml
Change in body weight(g) [3, 6]: 15(14) g
% Change in plasma fibrinogen [3, 6]: -25* %

CCCCCCCCCOc1ccsc1/C=C/C(C)=C/C=C/C(C)=C/C(=O)O [the 1st table, row 4]
% Change in Paw Volume (day 23) left [1, 7]: -50* %
% Change in Paw Volume (day 23) right [1, 7]: -50* %
% Change in plasma fibrinogen [1, 7]: -45* %
Body Weight gain(g) ([1]; 25 μ Moles/Kg Po. Tween 80): 31(37) g
% Change in Paw Volume (day 23) left [1, 5]: -84* %
% Change in Paw Volume (day 23) right [1, 5]: -68* %
% Change in plasma fibrinogen [1, 5]: -55* %
Body Weight gain(g) ([1]; 75 μ Moles/Kg Po. Tween 80): 27(30) g
Cholesterol (% change) ([2]; 25 μ Moles/Kg Po. Tween 80): -14* %
Cholesterol (% change) ([2]; 75 μ Moles/Kg Po. Tween 80): -25* %

CCCCCCCCCOc1ccsc1/C=C/C(C)=C/C=C/C(C)=C/C(=O)O [the 2nd table, row 5]
Change in Paw Volume (ml) ([4]; 10 µMoles/Kg i.p. corn oil): 0.18* (0.86) ml
Change in body weight(g) ([4]; 10 µMoles/Kg i.p. corn oil): 11(15) g
% Change in plasma fibrinogen ([4]; 10 µMoles/Kg i.p. corn oil): -18* %

CCCCOc1ccsc1/C=C/C(C)=C/C=C/C(C)=C/C(=O)O
Change in Paw Volume (ml) ([4]; 75 µMoles/Kg i.p. corn oil): -0.59* (1.14) ml
Change in body weight(g) ([4]; 75 µMoles/Kg i.p. corn oil): 11(10) g
% Change in plasma fibrinogen ([4]; 75 µMoles/Kg i.p. corn oil): -55* %

CC1=C(/C=C/C(C)=C/C=C/C(C)=C/C(=O)Nc2ccc(O)cc2)C(C)(C)CCC1 [4-hydroxyphenyl retinamide]
hypertriglyceridemia ([2]; no dose given): hypertriglyceridemia
serum cholesterol elevation ([2]; no dose given): serum cholesterol elevation

CCCCCCCCCOc1ccsc1/C=C/C(C)=C/C=C/C(C)=C/C(=O)O [the 2nd table, row 3]
Change in Paw Volume (ml) ([3]; 25 µMoles/Kg p.o., 7 days): 0.15*(0.84) ml
Change in body weight(g) ([3]; 25 µMoles/Kg p.o., 7 days): 9(14) g
% Change in plasma fibrinogen ([3]; 25 µMoles/Kg p.o., 7 days): -32* %
Change in Paw Volume (ml) [3, 6]: -0.63*(0.61) ml
Change in body weight(g) [3, 6]: 5*(15) g
% Change in plasma fibrinogen [3, 6]: -34* %
